Earlier results in patent publication US6562757B1, “Plant-protection treatment of plants and compositions which can be used for this purpose” (Cerexagri S.A., priority 1999, dated 2003).

Settings: pH 7

Row | Structure (SMILES) | amount of soluble aqueous copper (Cu2+(aq)) released [mg/L]
1 | [Cu+2].[OH-].[OH-] [copper hydroxide] | 1 to 10
2 | [Cl-].[Cu+2].[Cu+2].[OH-].[OH-].[OH-] [copper oxychloride] | 1 to 10
